According to US9983218B2, “Indole and indoline derivatives and methods of use thereof” (AbbVie Inc., priority 2008, dated 2018):

Test system: SK-N-SH human neuroblastoma cells
Assay: Serum deprivation/JC-1 mitochondrial membrane potential (MMP) assay
Format: cell-based
Details: Homo sapiens; for Emax: SK-N-SH, percent maximal intensity in JC-1 ratio normalized to 10 μM dimebolin, read-out: JC-1 max %; for EC50: SK-N-SH cells, serum deprivation ~18 hours, JC-1 ratio normalized to peak value for 10 μM dimebolin, single curve fit to mean data of n=2-3, read-out: EC50
Summary of the method: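 Cells were serum-deprived ~18 h in MEM with or without compound (DMSO ≤1%), then stained with JC-1 for 35 min at 37° C. The red/green fluorescence ratio (560/595 vs 485/535 nm) was normalized to the peak response of 10 μM dimebolin. EC50 came from one curve fit to mean data (n=2-3, duplicates).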

SMILES | Emax | EC50
Cc1ccc2c(c1)c1c(n2-c2ccc3ncncc3c2)C2CCN(CC2)C1 [Example 219, 9-methyl-6-quinazolin-6-yl-3,4,5,6-tetrahydro-1H-2,5-ethanoazepino[4,3-b]indole] | 201% | 3.07 µM
Cc1ccc2c(c1)c1c(n2-c2ccc3ccccc3n2)C2CCN(CC2)C1 [Example 222, 9-methyl-6-quinolin-2-yl-3,4,5,6-tetrahydro-1H-2,5-ethanoazepino[4,3-b]indole] | 215% | 4.43 µM
Fc1ccc2c(c1)c1c(n2-c2ccc3ccncc3c2)C2CCN(CC2)C1 [Example 223, 9-fluoro-6-isoquinolin-7-yl-3,4,5,6-tetrahydro-1H-2,5-ethanoazepino[4,3-b]indole] | 287% | 3.84 µM
Fc1ccc2c(c1)c1c(n2-c2ccc3ccccc3n2)C2CCN(CC2)C1 [Example 224, 9-fluoro-6-quinolin-2-yl-3,4,5,6-tetrahydro-1H-2,5-ethanoazepino[4,3-b]indole] | 215% | 3.17 µM
Fc1ccc2c(c1)c1c(n2-c2cccc(-n3cccn3)n2)C2CCN(CC2)C1 [Example 225, 9-fluoro-6-[6-(1H-pyrazol-1-yl)pyridin-2-yl]-3,4,5,6-tetrahydro-1H-2,5-ethanoazepino[4,3-b]indole] | 209% | 2.74 µM
Fc1ccc2c(c1)c1c(n2-c2ccc3cccnc3c2)C2CCN(CC2)C1 [Example 226, 9-fluoro-6-quinolin-7-yl-3,4,5,6-tetrahydro-1H-2,5-ethanoazepino[4,3-b]indole] | 307% | 1.68 µM
Fc1ccc2c(c1)c1c(n2-c2ccc3ncncc3c2)C2CCN(CC2)C1 [Example 227, 9-fluoro-6-quinazolin-6-yl-3,4,5,6-tetrahydro-1H-2,5-ethanoazepino[4,3-b]indole] | 266% | 3.62 µM
Cc1ccc2cc(-n3c4c(c5ccccc53)CN3CCC4CC3)ccc2n1 [Example 232, 6-(2-methylquinolin-6-yl)-3,4,5,6-tetrahydro-1H-2,5-ethanoazepino[4,3-b]indole] | 220% | 0.81 µM
c1cnc2ccc(-n3c4c(c5ccccc53)CN3CCC4CC3)cc2c1 [Example 233, 6-quinolin-6-yl-3,4,5,6-tetrahydro-1H-2,5-ethanoazepino[4,3-b]indole] | 250% | 0.8 µM
c1cnc2cc(-n3c4c(c5ccccc53)CN3CCC4CC3)ccc2c1 [Example 234, 6-quinolin-7-yl-3,4,5,6-tetrahydro-1H-2,5-ethanoazepino[4,3-b]indole] | 281% | 1.27 µM
c1ccc2nc(-n3c4c(c5ccccc53)CN3CCC4CC3)ccc2c1 [Example 235, 6-quinolin-2-yl-3,4,5,6-tetrahydro-1H-2,5-ethanoazepino[4,3-b]indole] | 252% | 3.96 µM
c1cc(-n2cccn2)nc(-n2c3c(c4ccccc42)CN2CCC3CC2)c1 [Example 236, 6-[6-(1H-pyrazol-1-yl)pyridin-2-yl]-3,4,5,6-tetrahydro-1H-2,5-ethanoazepino[4,3-b]indole] | 268% | 1.74 µM
CN1CCN(c2ccc(-n3c4c(c5ccccc53)CN3CCC4CC3)cc2)CC1 [Example 237, 6-[4-(4-methylpiperazin-1-yl)phenyl]-3,4,5,6-tetrahydro-1H-2,5-ethanoazepino[4,3-b]indole] | 174% | 2.48 µM
O=c1cccnn1CCn1c2c(c3cc(F)ccc31)CN1CCC2CC1 [Example 238, 2-[2-(9-fluoro-1,3,4,5-tetrahydro-6H-2,5-ethanoazepino[4,3-b]indol-6-yl)ethyl]pyridazin-3(2H)-one] | 86.5% | 11.6 µM
CC1CCCN1c1ccc(Cn2c3c(c4cc(F)ccc42)CN2CCC3CC2)cn1 (centres unmarked) [Example 240, 9-fluoro-6-{[6-(2-methylpyrrolidin-1-yl)pyridin-3-yl]methyl}-3,4,5,6-tetrahydro-1H-2,5-ethanoazepino[4,3-b]indole] | 170% | 3.33 µM
Fc1ccc2c(c1)c1c(n2Cc2ccc(N3CCCCC3)nc2)C2CCN(CC2)C1 [Example 241, 9-fluoro-6-{[6-(piperidin-1-yl)pyridin-3-yl]methyl}-3,4,5,6-tetrahydro-1H-2,5-ethanoazepino[4,3-b]indole] | 156% | 7.96 µM
CC(C)N(C)c1ccc(Cn2c3c(c4cc(F)ccc42)CN2CCC3CC2)cn1 [Example 242, 5-[(9-fluoro-1,3,4,5-tetrahydro-6H-2,5-ethanoazepino[4,3-b]indol-6-yl)methyl]-N-isopropyl-N-methylpyridin-2-amine] | 169% | 8.12 µM

SMILES | Emax | EC50
CN(CC1OCCO1)c1ccc(Cn2c3c(c4cc(F)ccc42)CN2CCC3CC2)cn1 [Example 243, N-(1,3-dioxolan-2-ylmethyl)-5-[(9-fluoro-1,3,4,5-tetrahydro-6H-2,5-ethanoazepino[4,3-b]indol-6-yl)methyl]-N-methylpyridin-2-amine] | 169% | 8.36 µM
Fc1ccc2c(c1)c1c(n2Cc2ccc(N3CCCC3)nc2)C2CCN(CC2)C1 [Example 244, 9-fluoro-6-{[6-(pyrrolidin-1-yl)pyridin-3-yl]methyl}-3,4,5,6-tetrahydro-1H-2,5-ethanoazepino[4,3-b]indole] | 226% | 5.65 µM
COCCN(C)c1ccc(Cn2c3c(c4cc(F)ccc42)CN2CCC3CC2)cn1 [Example 245, 5-[(9-fluoro-1,3,4,5-tetrahydro-6H-2,5-ethanoazepino[4,3-b]indol-6-yl)methyl]-N-(2-methoxyethyl)-N-methylpyridin-2-amine] | 189% | 10 µM
Fc1cncc(Cn2c3c(c4cc(F)ccc42)CN2CCC3CC2)c1 [Example 246, 9-fluoro-6-[(5-fluoropyridin-3-yl)methyl]-3,4,5,6-tetrahydro-1H-2,5-ethanoazepino[4,3-b]indole] | 148% | 8.76 µM
Fc1ccc2c(c1)c1c(n2Cc2ccc(-n3cccn3)nc2)C2CCN(CC2)C1 [Example 247, 9-fluoro-6-{[6-(1H-pyrazol-1-yl)pyridin-3-yl]methyl}-3,4,5,6-tetrahydro-1H-2,5-ethanoazepino[4,3-b]indole] | 192% | 4.65 µM
Fc1ccc2c(c1)c1c(n2Cc2cnc(-c3ccccc3)nc2)C2CCN(CC2)C1 [Example 249, 9-fluoro-6-[(2-phenylpyrimidin-5-yl)methyl]-3,4,5,6-tetrahydro-1H-2,5-ethanoazepino[4,3-b]indole] | 133% | 5.27 µM
Fc1ccc2c(c1)c1c(n2Cc2nc3ccccc3[nH]2)C2CCN(CC2)C1 [Example 250, 6-(1H-benzimidazol-2-ylmethyl)-9-fluoro-3,4,5,6-tetrahydro-1H-2,5-ethanoazepino[4,3-b]indole] | 77.3% | 8.37 µM
Fc1ccc2c(c1)c1c(n2Cc2cccc3cccnc23)C2CCN(CC2)C1 [Example 251, 9-fluoro-6-(quinolin-8-ylmethyl)-3,4,5,6-tetrahydro-1H-2,5-ethanoazepino[4,3-b]indole] | 193% | 4.39 µM
Cc1cc(Cn2c3c(c4cc(F)ccc42)CN2CCC3CC2)on1 [Example 252, 9-fluoro-6-[(3-methyl-1,2-oxazol-5-yl)methyl]-3,4,5,6-tetrahydro-1H-2,5-ethanoazepino[4,3-b]indole] | 109% | 6.2 µM
Fc1ccc2c(c1)c1c(n2Cc2cn3nc(Cl)ccc3n2)C2CCN(CC2)C1 [Example 253, 6-[(6-chloroimidazo[1,2-b]pyridazin-2-yl)methyl]-9-fluoro-3,4,5,6-tetrahydro-1H-2,5-ethanoazepino[4,3-b]indole] | 185% | 4.4 µM
Fc1ccc2c(c1)c1c(n2Cc2cn3cccnc3n2)C2CCN(CC2)C1 [Example 254, 9-fluoro-6-(imidazo[1,2-a]pyrimidin-2-ylmethyl)-3,4,5,6-tetrahydro-1H-2,5-ethanoazepino[4,3-b]indole] | 57.1% | 8.09 µM
O=c1cccnn1-c1ccc(Cn2c3c(c4cc(F)ccc42)CN2CCC3CC2)cc1 [Example 255, 2-{4-[(9-fluoro-1,3,4,5-tetrahydro-6H-2,5-ethanoazepino[4,3-b]indol-6-yl)methyl]phenyl}pyridazin-3(2H)-one] | 171% | 5.72 µM
FC(F)(F)c1ccc(Cn2c3c(c4ccccc42)CN2CCC3CC2)cn1 [Example 256, 6-{[6-(trifluoromethyl)pyridin-3-yl]methyl}-3,4,5,6-tetrahydro-1H-2,5-ethanoazepino[4,3-b]indole] | 89.6% | 15.5 µM
Clc1ccc2nc(Cn3c4c(c5ccccc53)CN3CCC4CC3)cn2n1 [Example 257, 6-[(6-chloroimidazo[1,2-b]pyridazin-2-yl)methyl]-3,4,5,6-tetrahydro-1H-2,5-ethanoazepino[4,3-b]indole] | 155% | 3.6 µM
O=c1ccccn1-c1cccc(-n2c3c(c4cc(F)ccc42)CN2CCC3CC2)n1 [Example 258, 6′-(9-fluoro-1,3,4,5-tetrahydro-6H-2,5-ethanoazepino[4,3-b]indol-6-yl)-2H-1,2′-bipyridin-2-one] | 149% | 2.99 µM
Oc1ncnc2ccc(-n3c4c(c5cc(F)ccc53)CN3CCC4CC3)cc12 [Example 259, 6-(9-fluoro-1,3,4,5-tetrahydro-6H-2,5-ethanoazepino[4,3-b]indol-6-yl)quinazolin-4-ol] | 126% | 3.2 µM
O=c1cnc2ccc(-n3c4c(c5cc(F)ccc53)CN3CCC4CC3)cc2[nH]1 [Example 260, 7-(9-fluoro-1,3,4,5-tetrahydro-6H-2,5-ethanoazepino[4,3-b]indol-6-yl)quinoxalin-2(1H)-one] | 191% | 2.91 µM
